In the NIST ThermoML archive (doi:10.1016/j.jct.2019.03.035):

Assay: molar heat capacity at constant pressure; xn = mol fraction of the nth substance listed
Settings: 100 kPa, Liquid, DSC, x1 = 0.53

N#Cc1ccccc1 [benzonitrile] + CCCCCCCCCC
Settings	molar heat capacity at constant pressure [J/K/mol]
281.74 K	261.8
281.89 K	260.4
282.04 K	262.8
282.19 K	264
282.34 K	264.4
282.48 K	263.4
282.63 K	264
282.78 K	263.3
282.93 K	263.9
283.08 K	266.3
283.23 K	265.2
283.38 K	266.7
283.52 K	266.3
283.67 K	268.2
283.82 K	266.5
283.97 K	267.5
284.12 K	266.6
284.26 K	265.9
284.41 K	266.6
284.56 K	268
284.71 K	266.6
284.86 K	268.5
285.01 K	265.8
285.16 K	269.9
285.3 K	270.2
285.45 K	268.9
285.6 K	269.8
285.75 K	271.8
285.9 K	271.1
286.05 K	270.5
286.19 K	273.2
286.34 K	273.4
286.49 K	278.6
286.64 K	283.9
286.79 K	282.2
286.94 K	285.9
287.09 K	285.2
287.23 K	307.6
287.38 K	254
287.53 K	250.3
287.68 K	248.6
287.83 K	246.7
287.98 K	247.4
288.12 K	245.8
288.27 K	246
288.42 K	245.6
288.57 K	244.9
288.72 K	244.8
288.87 K	244.5
289.01 K	244.3
289.16 K	243.6
289.31 K	244.2
289.46 K	243.9
289.61 K	244.1
289.76 K	243.4
289.9 K	243.5
290.05 K	243.5
290.2 K	243.2
290.35 K	243.1
290.5 K	243.2
290.65 K	243.1
290.83 K	243
290.98 K	241.8
291.13 K	243
291.28 K	243.4
291.43 K	242.8
291.57 K	242.5
291.72 K	242.7
291.87 K	242.8
292.02 K	242.4
292.17 K	242.1
292.32 K	241.7
292.46 K	242.5
292.61 K	242.1
292.76 K	241.7
292.91 K	242.6
293.06 K	242
293.21 K	242.1
293.36 K	242.4
293.5 K	241.7
293.65 K	242.3
293.8 K	242.2
293.95 K	242.1
294.1 K	241.7
294.25 K	241.9
294.39 K	241.8
294.54 K	242.1
294.69 K	242.1
294.84 K	242.3
294.99 K	241.7
295.14 K	242.2
295.29 K	242.1
295.43 K	241.7
295.58 K	242
295.73 K	242.1
295.88 K	242.8
296.03 K	242.1
296.18 K	242.8
296.32 K	242.2
296.47 K	241.8
296.62 K	241.1
297.05 K	242.4
297.34 K	242.5
297.62 K	242.5
297.91 K	242.4
298.19 K	242.5
298.47 K	242.7
298.76 K	242.6
299.04 K	242.7
299.32 K	242.8
299.61 K	242.9
299.89 K	242.9
300.18 K	243
300.46 K	243.1
300.74 K	243
301.03 K	243
301.31 K	243.1
301.6 K	243.2
301.88 K	243.2
302.16 K	243.3
302.45 K	243.4
302.73 K	243.5
303.01 K	243.5
303.3 K	243.6
303.58 K	243.7
303.87 K	243.7
304.15 K	243.8
304.43 K	243.9
304.72 K	243.9
305 K	244.1
305.29 K	244.1
305.57 K	244
305.85 K	244.2
306.14 K	244.3
306.42 K	244.3
306.7 K	244.4
306.99 K	244.5
307.27 K	244.6
307.56 K	244.6
307.84 K	244.7
308.12 K	244.9
308.41 K	244.8
308.69 K	244.9
308.98 K	245.1
309.26 K	245
309.54 K	245.1
309.83 K	245.2
310.11 K	245.4
310.39 K	245.5
310.68 K	245.5
310.96 K	245.5
311.25 K	245.7
311.53 K	245.7
311.81 K	245.8
312.1 K	245.9
312.38 K	246
312.67 K	246
312.95 K	246.1
313.23 K	246.3
313.52 K	246.2
313.8 K	246.5
314.08 K	246.5
314.37 K	246.6
314.65 K	246.5
314.94 K	246.7
315.22 K	246.8
315.5 K	246.9
315.79 K	246.9
316.07 K	247
316.36 K	247.1
316.64 K	247.3
316.92 K	247.4
317.21 K	247.5
317.49 K	247.5
317.77 K	247.6
318.06 K	247.7
318.34 K	247.7
318.63 K	247.8
318.91 K	248
319.19 K	248.1
319.48 K	248.2
319.76 K	248.2
320.05 K	248.3
320.33 K	248.4
320.61 K	248.5
320.9 K	248.5
321.18 K	248.6
321.46 K	248.7
321.75 K	248.9
322.03 K	249
322.32 K	249
322.6 K	249.1
322.88 K	249.3
323.17 K	249.3
323.45 K	249.5
323.74 K	249.5
324.02 K	249.6
324.3 K	249.7
324.59 K	249.9
324.87 K	250.1
325.16 K	250.2
325.44 K	250.1
325.72 K	250.1
